In ChEMBL document CHEMBL4418912, “Methods of identifying antagonists of the hTAS2R46 bitter taste receptor” (2014):
Active and inactive are the calls of the source. The rule behind the calls is not given here.

Key:
Type in all cases: functional, cell-based
[1] = molecular target: T1, Taste receptor type 2 member 43 (Homo sapiens) (UniProt P59537); test: Agonist activity at recombinant human N-terminal rat ST3 receptor-fused TAS2R43 expressed in HEK293T cells co-expressing Galpha16gust44 assessed as increase in intracellular calcium level at 100 uM by FLIPR assay
T1 sequence (whole entry): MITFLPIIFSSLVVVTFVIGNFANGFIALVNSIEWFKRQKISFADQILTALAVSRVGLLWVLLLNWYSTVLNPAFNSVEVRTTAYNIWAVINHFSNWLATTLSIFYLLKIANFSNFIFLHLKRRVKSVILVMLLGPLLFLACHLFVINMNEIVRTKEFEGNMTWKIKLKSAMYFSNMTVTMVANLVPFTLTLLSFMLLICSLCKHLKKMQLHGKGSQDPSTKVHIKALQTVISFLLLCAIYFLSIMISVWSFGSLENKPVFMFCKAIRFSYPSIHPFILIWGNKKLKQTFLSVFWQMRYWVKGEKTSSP

[2] = molecular target: T2, Taste receptor type 2 member 38 (Homo sapiens) (UniProt P59533); test: Agonist activity at recombinant human N-terminal rat ST3 receptor-fused TAS2R38 expressed in HEK293T cells co-expressing Galpha16gust44 assessed as increase in intracellular calcium level at 100 uM by FLIPR assay
T2 sequence (whole entry): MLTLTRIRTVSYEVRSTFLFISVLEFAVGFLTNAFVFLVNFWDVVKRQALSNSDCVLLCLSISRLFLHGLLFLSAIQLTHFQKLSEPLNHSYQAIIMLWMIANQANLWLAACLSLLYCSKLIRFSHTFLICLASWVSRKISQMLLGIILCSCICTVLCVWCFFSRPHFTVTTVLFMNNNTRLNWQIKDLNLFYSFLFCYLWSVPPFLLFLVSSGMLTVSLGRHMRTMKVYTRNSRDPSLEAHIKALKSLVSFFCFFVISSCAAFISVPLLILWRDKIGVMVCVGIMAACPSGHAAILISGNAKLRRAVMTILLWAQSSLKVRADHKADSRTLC

[3] = molecular target: T3, Taste receptor type 2 member 10 (Homo sapiens) (UniProt Q9NYW0); test: Competitive-antagonist activity at recombinant human N-terminal rat ST3 receptor-fused TAS2R10 expressed in HEK293T cells co-expressing Galpha16gust44 assessed as inhibition of strychnine-induced increase in intracellular calcium level by measuring maximum signal amplitude at 100 uM by FLIPR assay (reference value: 0.42 +/- 0.09 a.u.)
T3 sequence (whole entry): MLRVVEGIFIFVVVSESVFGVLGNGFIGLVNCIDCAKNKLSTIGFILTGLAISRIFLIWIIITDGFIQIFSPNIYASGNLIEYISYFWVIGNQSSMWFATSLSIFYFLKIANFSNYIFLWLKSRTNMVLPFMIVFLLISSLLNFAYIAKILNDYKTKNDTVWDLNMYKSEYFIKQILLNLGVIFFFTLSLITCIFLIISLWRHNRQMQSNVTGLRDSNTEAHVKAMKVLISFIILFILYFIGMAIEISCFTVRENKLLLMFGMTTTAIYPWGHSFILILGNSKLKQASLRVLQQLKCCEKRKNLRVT

[4] = molecular target: T4, Taste receptor type 2 member 16 (Homo sapiens) (UniProt Q9NYV7); test: Agonist activity at recombinant human N-terminal rat ST3 receptor-fused TAS2R16 expressed in HEK293T cells co-expressing Galpha16gust44 assessed as increase in intracellular calcium level at 100 uM by FLIPR assay
T4 sequence (whole entry): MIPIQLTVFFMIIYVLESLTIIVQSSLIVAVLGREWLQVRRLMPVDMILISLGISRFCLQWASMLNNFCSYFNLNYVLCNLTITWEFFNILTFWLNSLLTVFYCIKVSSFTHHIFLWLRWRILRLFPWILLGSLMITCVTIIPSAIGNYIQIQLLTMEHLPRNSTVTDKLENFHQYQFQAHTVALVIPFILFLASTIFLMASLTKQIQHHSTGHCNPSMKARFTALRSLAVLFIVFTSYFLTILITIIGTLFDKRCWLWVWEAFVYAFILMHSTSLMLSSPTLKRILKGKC

For `C/C1=C\C[C@H](O)/C(C)=C/[C@H]2OC(=O)[C@@H](C)[C@@H]2CC1`, the Activity [1] was “inactive”, the Activity [2] was “Active” and the Activity [3] was 0.34 a.u. For the same molecule, the Activity [4] was “inactive”.
